Assay results reported in ChEMBL document CHEMBL4308841, “Synthesis, in vitro antiproliferative activity, and kinase inhibitory effects of pyrazole-containing diarylureas and diarylamides” (Eur J Med Chem, 2018).

Experiments:
[1] = tested on: MCF7; assay: Growth inhibition of human MCF7 cells incubated for 48 hrs by sulforhodamine B assay; type: functional, cell-based; details: MCF7, 48 h
[2] = tested on: RPMI-8226; assay: Growth inhibition of human RPMI8226 cells assessed as cell growth at 1 uM incubated for 48 hrs by sulforhodamine B assay relative to control; type: functional; details: RPMI-8226, 48 h, read-out: Activity
[3] = tested on: MDA-MB-435; assay: Growth inhibition of human MDA-MB-435 cells assessed as cell growth at 100 uM incubated for 48 hrs by sulforhodamine B assay relative to control; type: functional; details: MDA-MB-435, 48 h, read-out: Activity
[4] = tested on: ACHN; assay: Growth inhibition of human ACHN cells assessed as cell growth at 1 uM incubated for 48 hrs by sulforhodamine B assay relative to control; type: functional; details: read-out: Activity
[5] = tested on: MDA-MB-231; assay: Growth inhibition of human MDA-MB-231 cells assessed as cell growth at 0.01 uM incubated for 48 hrs by sulforhodamine B assay relative to control; type: functional; details: MDA-MB-231, 48 h, read-out: Activity
[6] = tested on: OVCAR-3; assay: Growth inhibition of human OVCAR3 cells assessed as cell growth at 1 uM incubated for 48 hrs by sulforhodamine B assay relative to control; type: functional; details: OVCAR-3, 48 h, read-out: Activity
[7] = tested on: UO-31; assay: Growth inhibition of human UO31 cells assessed as cell growth at 0.1 uM incubated for 48 hrs by sulforhodamine B assay relative to control; type: functional; details: UO-31, 48 h, read-out: Activity
[8] = tested on: Malme-3M; assay: Growth inhibition of human MALME-3M cells assessed as cell growth at 0.01 uM incubated for 48 hrs by sulforhodamine B assay relative to control; type: functional; details: read-out: Activity
[9] = tested on: OVCAR-5; assay: Growth inhibition of human OVCAR5 cells assessed as cell growth at 0.01 uM incubated for 48 hrs by sulforhodamine B assay relative to control; type: functional; details: OVCAR-5, 48 h, read-out: Activity
[10] = tested on: SF-539; assay: Growth inhibition of human SF539 cells incubated for 48 hrs by sulforhodamine B assay; type: functional, cell-based; details: SF-539, 48 h
[11] = tested on: UACC-257; assay: Growth inhibition of human UACC257 cells assessed as cell growth at 100 uM incubated for 48 hrs by sulforhodamine B assay relative to control; type: functional; details: UACC-257, 48 h, read-out: Activity
[12] = tested on: HOP-62; assay: Growth inhibition of human HOP62 cells incubated for 48 hrs by sulforhodamine B assay; type: functional, cell-based; details: HOP-62, 48 h
[13] = tested on: Malme-3M; assay: Growth inhibition of human MALME-3M cells assessed as cell growth at 100 uM incubated for 48 hrs by sulforhodamine B assay relative to control; type: functional; details: read-out: Activity
[14] = tested on: HCT-15; assay: Growth inhibition of human HCT15 cells incubated for 48 hrs by sulforhodamine B assay; type: functional, cell-based; details: HCT-15, 48 h
[15] = tested on: HCT-116; assay: Growth inhibition of human HCT116 cells assessed as cell growth at 0.1 uM incubated for 48 hrs by sulforhodamine B assay relative to control; type: functional; details: HCT-116, 48 h, read-out: Activity
[16] = tested on: MDA-MB-231; assay: Growth inhibition of human MDA-MB-231 cells assessed as cell growth at 0.1 uM incubated for 48 hrs by sulforhodamine B assay relative to control; type: functional; details: MDA-MB-231, 48 h, read-out: Activity
[17] = tested on: SK-MEL-28; assay: Growth inhibition of human SK-MEL-28 cells incubated for 48 hrs by sulforhodamine B assay; type: functional, cell-based; details: SK-MEL-28, 48 h
[18] = tested on: Hs-578T; assay: Growth inhibition of human Hs578T cells assessed as cell growth at 0.1 uM incubated for 48 hrs by sulforhodamine B assay relative to control; type: functional; details: read-out: Activity
[19] = tested on: PC-3; assay: Growth inhibition of human PC3 cells assessed as cell growth at 0.1 uM incubated for 48 hrs by sulforhodamine B assay relative to control; type: functional; details: PC-3, 48 h, read-out: Activity
[20] = tested on: OVCAR-3; assay: Growth inhibition of human OVCAR3 cells assessed as cell growth at 0.01 uM incubated for 48 hrs by sulforhodamine B assay relative to control; type: functional; details: OVCAR-3, 48 h, read-out: Activity
[21] = tested on: SK-MEL-2; assay: Growth inhibition of human SK-MEL-2 cells assessed as cell growth at 0.1 uM incubated for 48 hrs by sulforhodamine B assay relative to control; type: functional; details: SK-MEL-2, 48 h, read-out: Activity
[22] = tested on: UO-31; assay: Growth inhibition of human UO31 cells incubated for 48 hrs by sulforhodamine B assay; type: functional, cell-based; details: UO-31, 48 h
[23] = tested on: SF-295; assay: Growth inhibition of human SF295 cells assessed as cell growth at 0.01 uM incubated for 48 hrs by sulforhodamine B assay relative to control; type: functional; details: SF-295, 48 h, read-out: Activity
[24] = tested on: CCRF-CEM; assay: Growth inhibition of human CCRF-CEM cells assessed as cell growth at 100 uM incubated for 48 hrs by sulforhodamine B assay relative to control; type: functional; details: read-out: Activity
[25] = tested on: SK-MEL-2; assay: Growth inhibition of human SK-MEL-2 cells incubated for 48 hrs by sulforhodamine B assay; type: functional, cell-based; details: SK-MEL-2, 48 h
[26] = tested on: NCI-H23; assay: Growth inhibition of human NCI-H23 cells incubated for 48 hrs by sulforhodamine B assay; type: functional, cell-based; details: NCI-H23, 48 h
[27] = tested on: SK-MEL-2; assay: Growth inhibition of human SK-MEL-2 cells assessed as cell growth at 100 uM incubated for 48 hrs by sulforhodamine B assay relative to control; type: functional; details: SK-MEL-2, 48 h, read-out: Activity
[28] = tested on: A549; assay: Growth inhibition of human A549/ATCC cells assessed as cell growth at 100 uM incubated for 48 hrs by sulforhodamine B assay relative to control; type: functional; details: A549, 48 h, read-out: Activity
[29] = read-out: LC50 (the source's name)
[30] = read-out: pLC50 (the source's name) (converted)

O=C(Nc1cccc(-n2cc(-c3ccncc3)c(-c3cc(O)cc(Cl)c3)n2)c1)Nc1ccc(Cl)c(C(F)(F)F)c1
GI50 ([1]; read-out: GI50): 2.53 µM
LC50 ([1]; read-out: LC50): > 100 µM
TGI ([1]; read-out: TGI): 85.4 µM
GI50 ([1]; read-out: pGI50 (converted)): 2.63 µM
LC50 ([1]; read-out: pLC50 (converted)): > 100 µM
TGI ([1]; read-out: pTGI (converted)): 8.51 µM
growth at 1 µM [2]: 88%
growth at 100 µM [3]: -93%
growth at 1 µM [4]: 92%
growth at 0.01 µM [5]: 105%
growth at 1 µM [6]: 91%
growth at 0.1 µM [7]: 83%
growth at 0.01 µM [8]: 93%
growth at 0.01 µM [9]: 98%
GI50 ([10]; read-out: GI50): 1.97 µM
CC50 [10, 29]: 13.7 µM
TGI ([10]; read-out: TGI): 44.9 µM
GI50 ([10]; read-out: pGI50 (converted)): 1.95 µM
CC50 [10, 30]: 13.8 µM
TGI ([10]; read-out: pTGI (converted)): 4.47 µM
growth at 100 µM [11]: -96%
GI50 ([12]; read-out: GI50): 3.06 µM
CC50 [12, 29]: > 100 µM
TGI ([12]; read-out: TGI): 13.4 µM
GI50 ([12]; read-out: pGI50 (converted)): 3.09 µM
CC50 [12, 30]: > 100 µM
TGI ([12]; read-out: pTGI (converted)): 13.5 µM
growth at 100 µM [13]: -91%
GI50 ([14]; read-out: GI50): 2.21 µM
CC50 [14, 29]: 50.6 µM
TGI ([14]; read-out: TGI): 60.1 µM
GI50 ([14]; read-out: pGI50 (converted)): 2.82 µM
CC50 [14, 30]: 60.3 µM
TGI ([14]; read-out: pTGI (converted)): 6.03 µM
growth at 0.1 µM [15]: 103%
growth at 0.1 µM [16]: 105%
GI50 ([17]; read-out: GI50): 2.01 µM
CC50 [17, 29]: 25.5 µM
TGI ([17]; read-out: TGI): 62 µM
GI50 ([17]; read-out: pGI50 (converted)): 2 µM
CC50 [17, 30]: 26.3 µM
TGI ([17]; read-out: pTGI (converted)): 6.17 µM
growth at 0.1 µM [18]: 94%
growth at 0.1 µM [19]: 98%
growth at 0.01 µM [20]: 101%
growth at 0.1 µM [21]: 94%
IC50 [22]: 2.1 µM
GI50 ([22]; read-out: GI50): 2.1 µM
CC50 [22, 29]: 34.7 µM
TGI ([22]; read-out: TGI): 61.4 µM
GI50 ([22]; read-out: pGI50 (converted)): 2.63 µM
CC50 [22, 30]: 34.7 µM
TGI ([22]; read-out: pTGI (converted)): 6.17 µM
growth at 0.01 µM [23]: 58%
growth at 100 µM [24]: -3%
GI50 ([25]; read-out: GI50): 2.2 µM
CC50 [25, 29]: 94.2 µM
TGI ([25]; read-out: TGI): 45.5 µM
GI50 ([25]; read-out: pGI50 (converted)): 2.24 µM
CC50 [25, 30]: 9.33 µM
TGI ([25]; read-out: pTGI (converted)): 4.57 µM
GI50 ([26]; read-out: GI50): 2.58 µM
LC50 ([26]; read-out: LC50): 45.1 µM
TGI ([26]; read-out: TGI): 74 µM
GI50 ([26]; read-out: pGI50 (converted)): 2.57 µM
LC50 ([26]; read-out: pLC50 (converted)): 45.7 µM
TGI ([26]; read-out: pTGI (converted)): 7.41 µM
growth at 100 µM [27]: -88%
growth at 100 µM [28]: -45%
